Test results taken from patent US20100267561A1, “HERBICIDAL PYRIDAZINONE DERIVATIVES” (priority 2007, published 2010).

Tests used:
Format in all cases: in vivo
[1] = system: canarygrass (Phalaris minor); experiment: Test C pre-/postemergence plant response
Outline: (§1)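 Scores (0 = no effect, 100 = complete control) are visual assessments made against control plants 15–25 days post-treatment in a controlled environment. Applications were preemergence and postemergence, with postemergence plants between 1- and 4-leaf stage.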

[2] = system: wild mustard (Sinapis arvensis); experiment: Test C pre-/postemergence plant response
Outline: as §1

[3] = system: winter wheat (Triticum aestivum); experiment: Test C pre-/postemergence plant response
Outline: as §1

[4] = system: annual bluegrass (Poa annua); experiment: Test C pre-/postemergence plant response
Outline: as §1

[5] = system: spring barley (Hordeum vulgare); experiment: Test C pre-/postemergence plant response
Outline: as §1

[6] = system: downy bromegrass (Bromus tectorum); experiment: Test C pre-/postemergence plant response
Outline: as §1

[7] = system: Italian ryegrass (Lolium multiflorum); experiment: Test C pre-/postemergence plant response
Outline: as §1

[8] = system: pigweed (Amaranthus retroflexus); experiment: Test C pre-/postemergence plant response
Outline: as §1

[9] = system: windgrass (Apera spica-venti); experiment: Test C pre-/postemergence plant response
Outline: as §1

[10] = system: spring wheat (Triticum aestivum); experiment: Test C pre-/postemergence plant response
Outline: as §1

[11] = system: winter barley (Hordeum vulgare); experiment: Test C pre-/postemergence plant response
Outline: as §1

wild oat (Avena fatua) = experiment: Test C pre-/postemergence plant response
Outline: as §1

[12] = system: blackgrass (Alopecurus myosuroides); experiment: Test C pre-/postemergence plant response
Outline: as §1

[13] = system: green foxtail (Setaria viridis); experiment: Test C pre-/postemergence plant response
Outline: as §1

[14] = system: umbrella sedge (Cyperus difformis); experiment: Test B flooded paddy test plant response
Outline: (§2)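 2-leaf plants; pots flooded 3 cm above soil; compound added to paddy water; depth maintained. Greenhouse 13–15 d. Visual rating vs controls, 0 (no effect) to 100 (complete control); dash = no result.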

[15] = system: ducksalad (Heteranthera limosa); experiment: Test B flooded paddy test plant response
Outline: as §2

rice (Oryza sativa) = experiment: Test B flooded paddy test plant response
Outline: as §2

[16] = Postemergence, 8 g ai/ha, scale 0 to 100, 0 no effect, 100 complete control
[17] = Postemergence, 16 g ai/ha, scale 0 to 100, 0 no effect, 100 complete control
[18] = Postemergence, 31 g ai/ha, scale 0 to 100, 0 no effect, 100 complete control
[19] = Postemergence, 62 g ai/ha, scale 0 to 100, 0 no effect, 100 complete control
[20] = Preemergence, 8 g ai/ha, scale 0 to 100 (0 no effect, 100 complete control)
[21] = Preemergence, 16 g ai/ha, scale 0 to 100 (0 no effect, 100 complete control)
[22] = Preemergence, 31 g ai/ha, scale 0 to 100 (0 no effect, 100 complete control)
[23] = Preemergence, 62 g ai/ha, scale 0 to 100, 0 no effect, 100 complete control
[24] = Flood (flooded paddy test), 62 g ai/ha, scale 0 to 100, 0 no effect, 100 complete control
[25] = Flood (flooded paddy test), 250 g ai/ha, scale 0 to 100, 0 no effect, 100 complete control
[26] = Flood (flooded paddy test), 125 g ai/ha, scale 0 to 100, 0 no effect, 100 complete control
[27] = Flood, 31 g ai/ha, scale 0 to 100

SMILES: CCc1cc(-c2ccc(F)cc2)nn1-c1c(O)cnn(C)c1=O [Compound 25]
- Plant response rating, Canarygrass [1, 16]: 0
- Plant response rating, Canarygrass [1, 17]: 0
- Plant response rating, Canarygrass [1, 18]: 0
- Plant response rating, Canarygrass [1, 19]: 40
- Plant response rating, Canarygrass [1, 20]: 0
- Plant response rating, Canarygrass [1, 21]: 0
- Plant response rating, Canarygrass [1, 22]: 10
- Plant response rating, Canarygrass [1, 23]: 35
- Plant response rating, Mustard, Wild [2, 16]: 0
- Plant response rating, Mustard, Wild [2, 17]: 0
- Plant response rating, Mustard, Wild [2, 18]: 0
- Plant response rating, Mustard, Wild [2, 19]: 0
- Plant response rating, Mustard, Wild [2, 20]: 0
- Plant response rating, Mustard, Wild [2, 21]: 0
- Plant response rating, Mustard, Wild [2, 22]: 0
- Plant response rating, Wheat, Winter [3, 16]: 0
- Plant response rating, Wheat, Winter [3, 17]: 0
- Plant response rating, Wheat, Winter [3, 18]: 0
- Plant response rating, Wheat, Winter [3, 20]: 0
- Plant response rating, Wheat, Winter [3, 21]: 0
- Plant response rating, Wheat, Winter [3, 22]: 0
- Plant response rating, Wheat, Winter [3, 23]: 0
- Plant response rating, Bluegrass [4, 16]: 0
- Plant response rating, Bluegrass [4, 17]: 0
- Plant response rating, Bluegrass [4, 18]: 15
- Plant response rating, Bluegrass [4, 19]: 15
- Plant response rating, Bluegrass [4, 20]: 0
- Plant response rating, Bluegrass [4, 21]: 35
- Plant response rating, Bluegrass [4, 22]: 40
- Plant response rating, Bluegrass [4, 23]: 40
- Plant response rating, Barley, Spring [5, 16]: 0
- Plant response rating, Barley, Spring [5, 17]: 0
- Plant response rating, Barley, Spring [5, 18]: 0
- Plant response rating, Barley, Spring [5, 20]: 0
- Plant response rating, Barley, Spring [5, 21]: 0
- Plant response rating, Barley, Spring [5, 22]: 0
- Plant response rating, Barley, Spring [5, 23]: 0
- Plant response rating, Bromegrass, Downy [6, 16]: 0
- Plant response rating, Bromegrass, Downy [6, 17]: 0
- Plant response rating, Bromegrass, Downy [6, 18]: 0
- Plant response rating, Bromegrass, Downy [6, 19]: 20
- Plant response rating, Bromegrass, Downy [6, 20]: 20
- Plant response rating, Bromegrass, Downy [6, 21]: 20
- Plant response rating, Bromegrass, Downy [6, 22]: 20
- Plant response rating, Bromegrass, Downy [6, 23]: 35
- Plant response rating, Ryegrass, Italian [7, 16]: 0
- Plant response rating, Ryegrass, Italian [7, 17]: 60
- Plant response rating, Ryegrass, Italian [7, 18]: 80
- Plant response rating, Ryegrass, Italian [7, 19]: 95
- Plant response rating, Ryegrass, Italian [7, 20]: 25
- Plant response rating, Ryegrass, Italian [7, 21]: 30
- Plant response rating, Ryegrass, Italian [7, 22]: 60
- Plant response rating, Ryegrass, Italian [7, 23]: 75
- Plant response rating, Pigweed [8, 16]: 0
- Plant response rating, Pigweed [8, 17]: 0
- Plant response rating, Pigweed [8, 18]: 0
- Plant response rating, Pigweed [8, 19]: 20
- Plant response rating, Pigweed [8, 20]: 0
- Plant response rating, Pigweed [8, 21]: 0
- Plant response rating, Pigweed [8, 22]: 0
- Plant response rating, Pigweed [8, 23]: 0
- Plant response rating, Windgrass [9, 16]: 0
- Plant response rating, Windgrass [9, 17]: 0
- Plant response rating, Windgrass [9, 18]: 35
- Plant response rating, Windgrass [9, 19]: 60
- Plant response rating, Windgrass [9, 20]: 50
- Plant response rating, Windgrass [9, 21]: 75
- Plant response rating, Wheat, Spring [10, 16]: 0
- Plant response rating, Wheat, Spring [10, 17]: 0
- Plant response rating, Wheat, Spring [10, 18]: 0
- Plant response rating, Wheat, Spring [10, 20]: 0
- Plant response rating, Wheat, Spring [10, 21]: 0
- Plant response rating, Wheat, Spring [10, 22]: 0
- Plant response rating, Wheat, Spring [10, 23]: 0
- Plant response rating, Barley, Winter [11, 16]: 0
- Plant response rating, Barley, Winter [11, 17]: 0
- Plant response rating, Barley, Winter [11, 18]: 0
- Plant response rating, Barley, Winter [11, 20]: 0
- Plant response rating, Barley, Winter [11, 21]: 0
- Plant response rating, Barley, Winter [11, 22]: 0
- Plant response rating, Barley, Winter [11, 23]: 0
- Plant response rating, Oat, Wild (wild oat (Avena fatua); [16]): 0
- Plant response rating, Oat, Wild (wild oat (Avena fatua); [17]): 15
- Plant response rating, Oat, Wild (wild oat (Avena fatua); [18]): 90
- Plant response rating, Oat, Wild (wild oat (Avena fatua); [19]): 95
- Plant response rating, Oat, Wild (wild oat (Avena fatua); [20]): 15
- Plant response rating, Oat, Wild (wild oat (Avena fatua); [21]): 15
- Plant response rating, Oat, Wild (wild oat (Avena fatua); [22]): 40
- Plant response rating, Oat, Wild (wild oat (Avena fatua); [23]): 40
- Plant response rating, Blackgrass [12, 16]: 5
- Plant response rating, Blackgrass [12, 17]: 35
- Plant response rating, Blackgrass [12, 18]: 90
- Plant response rating, Blackgrass [12, 19]: 98
- Plant response rating, Blackgrass [12, 20]: 0
- Plant response rating, Blackgrass [12, 21]: 50
- Plant response rating, Blackgrass [12, 22]: 75
- Plant response rating, Blackgrass [12, 23]: 75
- Plant response rating, Foxtail, Green [13, 16]: 70
- Plant response rating, Foxtail, Green [13, 17]: 80
- Plant response rating, Foxtail, Green [13, 18]: 95
- Plant response rating, Foxtail, Green [13, 19]: 98
- Plant response rating, Foxtail, Green [13, 20]: 15
- Plant response rating, Foxtail, Green [13, 21]: 25
- Plant response rating, Foxtail, Green [13, 22]: 100
- Plant response rating, Foxtail, Green [13, 23]: 100
- Plant response rating, Sedge, Umbrella [14, 24]: 0
- Plant response rating, Sedge, Umbrella [14, 25]: 0
- Plant response rating, Ducksalad [15, 24]: 0
- Plant response rating, Ducksalad [15, 25]: 0
- Plant response rating, Rice (rice (Oryza sativa); [24]): 0
- Plant response rating, Rice (rice (Oryza sativa); [25]): 0

SMILES: Cc1cc(-c2ccc(Cl)cc2)nn1-c1c(OS(=O)(=O)c2ccccc2[N+](=O)[O-])cnn(C)c1=O [Compound 51]
- Plant response rating, Canarygrass [1, 20]: 0
- Plant response rating, Canarygrass [1, 21]: 0
- Plant response rating, Canarygrass [1, 22]: 80
- Plant response rating, Canarygrass [1, 23]: 90
- Plant response rating, Mustard, Wild [2, 21]: 0
- Plant response rating, Mustard, Wild [2, 22]: 0
- Plant response rating, Mustard, Wild [2, 23]: 0
- Plant response rating, Wheat, Winter [3, 20]: 0
- Plant response rating, Wheat, Winter [3, 21]: 0
- Plant response rating, Wheat, Winter [3, 22]: 0
- Plant response rating, Wheat, Winter [3, 23]: 40
- Plant response rating, Bluegrass [4, 20]: 0
- Plant response rating, Bluegrass [4, 21]: 0
- Plant response rating, Bluegrass [4, 22]: 0
- Plant response rating, Bluegrass [4, 23]: 10
- Plant response rating, Barley, Spring [5, 20]: 0
- Plant response rating, Barley, Spring [5, 21]: 15
- Plant response rating, Barley, Spring [5, 22]: 20
- Plant response rating, Barley, Spring [5, 23]: 70
- Plant response rating, Bromegrass, Downy [6, 20]: 0
- Plant response rating, Bromegrass, Downy [6, 21]: 0
- Plant response rating, Bromegrass, Downy [6, 22]: 0
- Plant response rating, Bromegrass, Downy [6, 23]: 50
- Plant response rating, Ryegrass, Italian [7, 20]: 0
- Plant response rating, Ryegrass, Italian [7, 21]: 90
- Plant response rating, Ryegrass, Italian [7, 23]: 90
- Plant response rating, Pigweed [8, 20]: 0
- Plant response rating, Pigweed [8, 21]: 0
- Plant response rating, Pigweed [8, 22]: 0
- Plant response rating, Pigweed [8, 23]: 0
- Plant response rating, Windgrass [9, 20]: 0
- Plant response rating, Windgrass [9, 21]: 10
- Plant response rating, Windgrass [9, 22]: 20
- Plant response rating, Windgrass [9, 23]: 80
- Plant response rating, Wheat, Spring [10, 20]: 0
- Plant response rating, Wheat, Spring [10, 21]: 0
- Plant response rating, Wheat, Spring [10, 22]: 60
- Plant response rating, Wheat, Spring [10, 23]: 75
- Plant response rating, Barley, Winter [11, 20]: 0
- Plant response rating, Barley, Winter [11, 21]: 0
- Plant response rating, Barley, Winter [11, 22]: 0
- Plant response rating, Barley, Winter [11, 23]: 40
- Plant response rating, Oat, Wild (wild oat (Avena fatua); [20]): 0
- Plant response rating, Oat, Wild (wild oat (Avena fatua); [21]): 0
- Plant response rating, Oat, Wild (wild oat (Avena fatua); [22]): 35
- Plant response rating, Oat, Wild (wild oat (Avena fatua); [23]): 50
- Plant response rating, Blackgrass [12, 20]: 0
- Plant response rating, Blackgrass [12, 21]: 35
- Plant response rating, Blackgrass [12, 22]: 100
- Plant response rating, Blackgrass [12, 23]: 100
- Plant response rating, Foxtail, Green [13, 20]: 10
- Plant response rating, Foxtail, Green [13, 21]: 80
- Plant response rating, Foxtail, Green [13, 22]: 100
- Plant response rating, Foxtail, Green [13, 23]: 100
- Plant response rating, Sedge, Umbrella [14, 24]: 40
- Plant response rating, Sedge, Umbrella [14, 26]: 60
- Plant response rating, Sedge, Umbrella [14, 25]: 70
- Plant response rating, Sedge, Umbrella [14, 27]: 0
- Plant response rating, Ducksalad [15, 24]: 0
- Plant response rating, Ducksalad [15, 26]: 0
- Plant response rating, Ducksalad [15, 25]: 0
- Plant response rating, Ducksalad [15, 27]: 0
- Plant response rating, Rice (rice (Oryza sativa); [24]): 0
- Plant response rating, Rice (rice (Oryza sativa); [26]): 0
- Plant response rating, Rice (rice (Oryza sativa); [25]): 0
- Plant response rating, Rice (rice (Oryza sativa); [27]): 0
